Assay results: US11932620B1, “Ethyl 2-[9-(6-flouro-2-hydroxyquinolin-3-yl)-1,8-dioxo-3,4,9,10-tetrahydroacridine-10-yl]-acetate as an antimicrobial compound” (KING FAISAL UNIVERSITY, priority 2023, dated 2024)

Tests used:
Assay type in all cases: cell-based
Settings in all cases: after 10, 20, 40 and 60 minutes at all dilutions 1:100, 1:200, 1:400, 1:800
[1] = tested on: Staphylococcus aureus; experiment: Antimicrobial screening by agar dilution, Staphylococcus aureus
Description: (§1) The antibacterial properties of the synthesized compound ethyl 2-[9-(6-fluoro-2-hydroxyquinolin-3-yl)-1,8-dioxo-3,4,9,10-tetrahydroacridine-10-yl]-acetate were studied by the method of agar dilution. Test solutions of each compound was prepared in concentration of 1% using dimethylformamide as a solvent then they are diluted in physiological solution to obtain the final experimental dilutions 1:100, 1:200, 1:400, 1:800. The effect of these substances are compared with furacillin in a controllable study. The testing microbes used were gram positive bacteria Staphylococcus aureus, gram negative bacteria Pseudomonas aeruginosa and Escherichia coli and Candida albicans fungus. The experiments used for this survey were meat-pentonlu agar (EPA) for cultivation of bacteria and Saburo environment for the fungus. Each experiment used 1 mL of test solution on each plate […]. Two drops of emulsified with microbes feel were added. All experimental samples were taken from the agar after 10, 20, 40, 60 minutes in the environment on the basis of Patrk planted. The bacteria were cultivated at a temperature of 37° C. for 1 day and the mushroom was kept in a thermostat for 2 hours at a temperature of 28° C. Then results were checked. Results of the control (Furacilin) and the antimicrobial activity for the synthesized compounds are listed in are listed in Table 1.

[2] = tested on: Pseudomonas aeruginosa; experiment: Antimicrobial screening by agar dilution, Pseudomonas aeruginosa
Description: as §1

[3] = tested on: Escherichia coli; experiment: Antimicrobial screening by agar dilution, Escherichia coli
Description: as §1

[4] = tested on: Candida albicans; experiment: Antimicrobial screening by agar dilution, Candida albicans
Description: as §1

Measured: inhibition activity (in words)

CCOC(=O)CN1C2=C(C(=O)CCC2)C(c2cc3cc(F)ccc3nc2O)C2=C1CCCC2=O [ethyl 2-[9-(6-fluoro-2-hydroxyquinolin-3-yl)-1,8-dioxo-3,4,9,10-tetrahydroacridine-10-yl]-acetate]
highest inhibition activity: [1] | [2] | [3] | [4]
